# Results: patent US11702440B2, “Pharmaceutical polymorphs of Molnupiravir” (OPTIMUS DRUGS (P) LTD, priority 2021, dated 2023)
# How the values were obtained:
# SARS-CoV-2 = details: found in March 2020; cited from earlier work
# [1] = First-in-human phase 1 single and multiple ascending dose pharmacokinetics in healthy volunteers; type: in vivo
# Procedure: Single and multiple doses of Molnupiravir were evaluated in this first-in-human, phase 1, […] randomized, double-blind, placebo-controlled study in healthy volunteers, which included […] evaluation of the effect of food on pharmacokinetics. Eligible subjects were randomized in a 3:1 ratio to either study drug or placebo in the single- and multiple-ascending-dose parts of the study. Each cohort comprised 8 subjects, with single oral doses of 50 to 1600 mg administered in the single-ascending-dose part and twice-daily (BID) […] doses of 50 to 800 mg administered for 5.5 days in the multiple-ascending-dose part. Subjects were followed for 14 days following completion of dosing for assessments of safety, tolerability, and pharmacokinetics. Subjects in the food-effect evaluation were randomized in a 1:1 ratio to either 200 mg Molnupiravir in the fed state followed by 200 mg Molnupiravir in the fasted state, or vice versa, with a 14-day washout period between doses. A capsule formulation was used in all parts of the study, with the exception of single ascending doses ≤800 mg, where an oral solution formulation was used.
# [2] = In-vitro dissolution study of Molnupiravir Capsules; type: physicochemical; details: 900 ml 0.1 N HCl, paddle 50 RPM
# Procedure: Dissolution study of test product Molnupiravir Capsules 200 mg, 400 mg 800 mg was performed in order to understand % dissolution in release dissolution media. The dissolution media used for the test is 900 ml of 0.1 NHCl at 50 RPM with paddle.
# [3] = tested on: coronaviruses including SARS, MERS and SARS-CoV-2; details: cited from earlier work
compound,measurement,setting,value
CC(C)C(=O)OC[C@H]1O[C@@H](n2ccc(NO)nc2=O)[C@H](O)[C@@H]1O [Molnupiravir],activity against SARS-CoV-2,SARS-CoV-2,active
same,mean AUCinf increase with dose,"[1]; Day 1, power model, oral, lower bound of 90% CI slightly above unity",approximately dose-proportional
same,mean Cmax increase with dose,"[1]; Day 1, power model, oral, upper bound of 90% CI slightly below unity",approximately dose-proportional
same,mean Cmax increase with dose,"[1]; Day 6, BID oral dosing, 90% CI containing unity",dose proportional
same,mean AUCτ increase with dose,"[1]; Day 6, BID oral dosing, lower bound of 90% CI slightly above unity",approximately dose-proportional
same,% Drug release of Molnupiravir,"[2]; 200 mg capsules, 5 min",85%
same,% Drug release of Molnupiravir,"[2]; 200 mg capsules, 10 min",97%
same,% Drug release of Molnupiravir,"[2]; 200 mg capsules, 15 min",97%
same,% Drug release of Molnupiravir,"[2]; 200 mg capsules, 20 min",102%
same,% Drug release of Molnupiravir,"[2]; 200 mg capsules, 30 min",103%
same,% Drug release of Molnupiravir,"[2]; 200 mg capsules, 45 min",102%
same,% Drug release of Molnupiravir,"[2]; 400 mg capsules, 5 min",86%
same,% Drug release of Molnupiravir,"[2]; 400 mg capsules, 10 min",90%
same,% Drug release of Molnupiravir,"[2]; 400 mg capsules, 15 min",93%
same,% Drug release of Molnupiravir,"[2]; 400 mg capsules, 20 min",97%
same,% Drug release of Molnupiravir,"[2]; 400 mg capsules, 30 min",97%
same,% Drug release of Molnupiravir,"[2]; 400 mg capsules, 45 min",97%
same,% Drug release of Molnupiravir,"[2]; 800 mg capsules, 5 min",84%
same,% Drug release of Molnupiravir,"[2]; 800 mg capsules, 10 min",95%
same,% Drug release of Molnupiravir,"[2]; 800 mg capsules, 15 min",97%
same,% Drug release of Molnupiravir,"[2]; 800 mg capsules, 20 min",99%
same,% Drug release of Molnupiravir,"[2]; 800 mg capsules, 30 min",101%
same,% Drug release of Molnupiravir,"[2]; 800 mg capsules, 45 min",101%
same,activity against coronaviruses,[3],Activity has also been demonstrated
